Residues, ends and D or L forms follow the SMILES beside them. *: point of attachment. Biotin = O=C1N[C@H]2[C@H](CS[C@H]2CCCCC(=O)*)N1
Legend:
Experiment in all cases: G3 assay titration, GST-PDZ fusion / biotinylated peptide
Type in all cases: binding
KIAA1284 d1 = biological target: T1, KIAA1284 d1 (Homo sapiens, UniProt Q9ULD6)
T1 construct: made in house; host or cells: E. coli (DH5alpha, BL21 or JM109)
T1 sequence (Q9ULD6 159-271): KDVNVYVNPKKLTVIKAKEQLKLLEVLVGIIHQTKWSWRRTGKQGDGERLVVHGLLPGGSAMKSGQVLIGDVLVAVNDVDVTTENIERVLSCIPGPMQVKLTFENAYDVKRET
Protocol: (§1) The G3 assay is identical to the G0 assay with the following exceptions. The peptides are typically present at 0.1 μM rather than 20 μM. The peptides are also pre-incubated with the HRP-streptavidin prior to adding to the assay plate. In the G0 assay, free peptide is incubated with the PDZ proteins prior to the addition of the HRP-streptavidin. Thus, for the G0 assay one can lose signal if the bound peptide dissociates from the PDZ protein prior to the addition of the HRP-streptavidin. In the G3 modified assay the HRP-streptavidin/peptide complex is added to the plate in one step, thus increasing the likelihood that all the bound peptide will be bound to HRP-streptavidin. The G3 modified assay increases the chance of observing weak interactions.
(§2) This example describes assays to identify binding between TRPM7 and PDZ domains. GST-PDZ fusions are produced that each contain an entire PDZ domain (or multiple PDZ domains), the collection encompassing approximately 90% of all PDZ domains identified in the human genome. (See Table 5 and Section V (PDZ Proteins and PL Protein Interactions Disclosure). Biotinylated peptide corresponding to 11 residues of Tat coupled to the C-terminal 9 amino acids of TRPM7 ([…]; SEQ ID NO:258) is synthesized and purified by HPLC.
(§3) • Nunc MaxiSorp 96 well Immuno-plate, Nunc • PBS pH 7.4 (phosphate buffered saline, 8 g NaCl, 0.29 g KCl, 1.44 g Na2HPO4, 0.24 g KH2PO4, add H2O to 1 liter and pH 7.4; 0.2 μm filter) • Assay Buffer: 2% BSA in PBS (20 g of bovine serum albumin per liter PBS, fraction V, ICN Biomedicals, cat#IC15142983 • Goat anti-GST polyclonal Ab, stock 5 mg/ml, stored at 4° C., Amersham Pharmacia cat#27-4577-01 • Dilute 1:1000 in PBS, final concentration 5 μg/ml. • HRP-Streptavidin, 2.5 mg/2 ml stock stored at 4° C., Zymed cat#43-4323, dilute 1:2000 into Assay buffer, final concentration of […] • Wash Buffer, PBS • Biotinylated peptides (HPLC purified, stock solution stored in −20° C. freezer) • GST-PRISM proteins (stock stored at −80° C., after 1st thaw store in −10° C. freezer) • TMB (3,3′,5,5′, teramethylbensidine), tablets, Sigma cat.#T5525 • Per plate, dissolve 1 tablet in 1 ml DMSO, add 9 ml Citrate/Phosphate buffer pH 5.4 and 2 μL H2O2 • 0.1 M H2SO4, Sigma cat.#S1526 • 12-w multichannel pipettor & tips • 50 ml reagent reservoirs, Costar#4870 • 50, 15 ml polypropylene conical tubes • Costar Transtar 96 Costar #7605 • Transtar 96 Cartridge Costar #7610 • Molecular Devices microplate reader (450 & 650 nm filters) with SoftMax Pro software *When using reagents stored at or 4° C. or −20° C., remove & keep on ice
(§4) • 1. Coat plate with 100 μl of 5 μg/ml anti-GST, overnight at 4° C. • 2. Dump contents of plate & out tap dry on paper towels • 3. Block with 200 μl Assay Buffer for 2 hrs at room temperature • 4. Prepare proteins at 5 μg/ml in Assay Buffer • 5. Wash 3× with cold PBS (4° C.), avoiding letting the plates dry out • 6. Add proteins at 50 μl per well, incubate 1 to 2 hrs at 4° C. • 7. Prepare peptides to desired concentration in Assay Buffer • 8. Wash 3× with cold PBS (4° C.), avoiding letting the plates dry out • 9. Add HRP-Streptavidin/peptide complex [prepared by incubating for 20 minutes at room temperature HRP-Streptavidin (1:2000) with the desired biotin-peptide concentration for 20 minutes at room temperature] at 50 μl per well on ice • 10. Place at room temperature for exactly 30 minutes • 11. Promptly wash 5× with PBS at room temperature • 12. Add 100 μl/well TMB substrate (write time on plate) • 13. Incubate in dark at room temperature for a maximum of 30 minutes • 14. Read plate at 25 minutes (650 nm), optional • 15. Stop reaction with 100 μl of 0.18 M H2SO4, 30 minutes after adding TMB • Take last reading at 450 nm soon after stopping reaction
(§5) The G3 assay was performed on a subset of the PDZ domains as in Example II except that the concentration of peptide was 0.002 μM, […], 0.1 μM, 0.2 μM, 1 μM, and 2 μM. Data was fitted to the equation: […]

MUPP1 d3 = biological target: T2, MUPP1 d3 (Homo sapiens, UniProt O75970)
T2 construct: made in house; host or cells: E. coli (DH5alpha, BL21 or JM109)
T2 sequence (O75970 with tags, fused parts or gaps): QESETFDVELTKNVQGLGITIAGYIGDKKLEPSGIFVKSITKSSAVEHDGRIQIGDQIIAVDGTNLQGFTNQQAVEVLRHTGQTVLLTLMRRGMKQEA
Protocol: as §1, §2, §3, §4, §5

SITAC-18 d1 = biological target: T3, SITAC-18 d1 (Homo sapiens, UniProt Q9H190)
T3 construct: made in house; host or cells: E. coli (DH5alpha, BL21 or JM109)
T3 sequence (Q9H190 104-195): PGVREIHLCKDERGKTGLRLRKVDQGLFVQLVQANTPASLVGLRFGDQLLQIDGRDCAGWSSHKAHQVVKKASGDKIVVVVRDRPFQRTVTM
Protocol: as §1, §2, §3, §4, §5

TIP1 d1 = biological target: T4, TIP1 d1 (Homo sapiens, UniProt O14907)
T4 construct: made in house; host or cells: E. coli (DH5alpha, BL21 or JM109)
T4 sequence (O14907 14-116): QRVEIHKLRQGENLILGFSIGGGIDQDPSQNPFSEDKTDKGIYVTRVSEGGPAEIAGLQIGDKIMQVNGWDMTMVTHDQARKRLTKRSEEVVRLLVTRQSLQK
Protocol: as §1, §2, §3, §4, §5

Mint 1 (d1, d2) = biological target: T5, Mint 1 (d1, d2) (Homo sapiens, UniProt Q02410, K730E)
T5 construct: made in house; host or cells: E. coli (DH5alpha, BL21 or JM109)
T5 sequence (Q02410 651-828 K730E): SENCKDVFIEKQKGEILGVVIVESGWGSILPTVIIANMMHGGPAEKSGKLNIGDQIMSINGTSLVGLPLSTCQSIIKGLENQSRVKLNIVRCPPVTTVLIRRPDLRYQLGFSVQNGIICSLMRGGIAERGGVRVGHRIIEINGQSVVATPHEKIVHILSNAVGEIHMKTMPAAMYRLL

Syntrophin 1 alpha d1 = biological target: T6, Syntrophin 1 alpha d1 (Homo sapiens, UniProt Q13424)
T6 construct: made in house; host or cells: E. coli (DH5alpha, BL21 or JM109)
T6 sequence (Q13424 84-177): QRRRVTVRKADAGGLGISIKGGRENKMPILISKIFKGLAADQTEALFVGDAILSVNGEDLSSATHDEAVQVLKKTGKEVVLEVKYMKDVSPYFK

**Q.** With `CSCC[C@H](NC(=O)[C@H](CC(C)C)NC(=O)[C@H](CCCNC(=N)N)NC(=O)[C@@H](NC(=O)[C@H](CO)NC(=O)[C@H](CC(N)=O)NC(=O)[C@@H](NC(=O)[C@H](CO)NC(=O)[C@H](CCCNC(=N)N)NC(=O)[C@H](CCCNC(=N)N)NC(=O)[C@H](CCCNC(=N)N)NC(=O)[C@H](CCC(N)=O)NC(=O)[C@H](CCCNC(=N)N)NC(=O)[C@H](CCCNC(=N)N)NC(=O)[C@H](CCCCN)NC(=O)[C@H](CCCCN)NC(=O)[C@H](CCCNC(=N)N)NC(=O)CNC(=O)[C@H](Cc1ccc(O)cc1)NC(=O)CCCC[C@@H]1SC[C@@H]2NC(=O)N[C@@H]21)[C@@H](C)O)C(C)C)C(=O)N[C@@H](CC(C)C)C(=O)O` [Tat-TRPM7 peptide] (Biotin-YGRKKRRQRRRSTNSVRLML-OH) as the compound, how does the EC50 (KIAA1284 d1) read?
**A.** The EC50 was greater than 2000 nM.

**Q.** What about the EC50 (MUPP1 d3) of the same compound?
**A.** The EC50 was 290 nM.

**Q.** And the EC50 (SITAC-18 d1)?
**A.** Its EC50 is less than 1000 nM.

**Q.** And the EC50 (TIP1 d1)?
**A.** The EC50 was less than 1000 nM.

**Q.** What about the EC50 (Mint 1 (d1, d2)) of the same compound?
**A.** The EC50 was 180 nM.

**Q.** What about the EC50 (Syntrophin 1 alpha d1) of the same compound?
**A.** Its EC50 is 160 nM.

— patent publication US20080119412A1, “Polypeptides for Modulating Binding of Trp Channel Proteins and Trp- Associated Proteins” (NoNO Inc., priority 2003, published 2008)
